In patent US10597388B2, “Pyridazinone herbicides” (FMC CORPORATION, priority 2014, dated 2020):

Key:
Format in all cases: in vivo
[1] = system: blackgrass (Alopecurus myosuroides); test: Test C greenhouse herbicide test, pre- and postemergence
Description: (§1) Seeds of plant species selected from blackgrass (Alopecurus myosuroides), ryegrass, Italian (Italian ryegrass, Lolium multiflorum), wheat (winter wheat, Triticum aestivum), galium (catchweed bedstraw, Galium aparine), corn (Zea mays), large crabgrass, large (large crabgrass, Digitaria sanguinalis), foxtail, giant (giant foxtail, Setaria faberii), johnsongrass (Sorghum halepense), lambsquarters (Chenopodium album), morningglory (Ipomoea coccinea), nutsedge, yellow (yellow nutsedge, Cyperus esculentus), pigweed (Amaranthus retroflexus), ragweed (common ragweed, Ambrosia elatior), soybean (Glycine max), barnyardgrass (Echinochloa crus-galli), oilseed rape (Brassica napus), waterhemp (common waterhemp, Amaranthus rudis), and velvetleaf (Abutilon theophrasti) were planted into a blend of loam soil and sand and treated preemergence with test chemicals formulated in a non-phytotoxic solvent mixture which included a surfactant.
(§2) At the same time, plants selected from these crop and weed species and also chickweed (common chickweed, Stellaria media), kochia (Kochia scoparia), and oat, wild (wild oat, Avena fatua), were planted in pots containing Redi-Earth® planting medium (Scotts Company, 14111 Scottslawn Road, Marysville, Ohio 43041) comprising spaghnum peat moss, vermiculite, wetting agent and starter nutrients and treated with postemergence applications of test chemicals formulated in the same manner. Plants ranged in height from 2 to 18 cm (1- to 4-leaf stage) for postemergence treatments. Treated plants and controls were maintained in a greenhouse for 13 to 15 d, after which time all species were compared to controls and visually evaluated. Plant response ratings, summarized in Table C, are based on a scale of 0 to 100 where 0 is no effect and 100 is complete control. A dash (-) response means no test result.

corn (Zea mays) = test: as above
Description: as §1, §2

[2] = system: crabgrass, large (large crabgrass, Digitaria sanguinalis); test: as above
Description: as §1, §2

[3] = system: foxtail, giant (giant foxtail, Setaria faberii); test: as above
Description: as §1, §2

[4] = system: johnsongrass (Sorghum halepense); test: as above
Description: as §1, §2

[5] = system: lambsquarters (Chenopodium album); test: as above
Description: as §1, §2

[6] = system: morningglory (Ipomoea coccinea); test: as above
Description: as §1, §2

[7] = system: oilseed rape (Brassica napus); test: as above
Description: as §1, §2

[8] = system: pigweed (Amaranthus retroflexus); test: as above
Description: as §1, §2

[9] = system: ragweed (common ragweed, Ambrosia elatior); test: as above
Description: as §1, §2

[10] = system: ryegrass, Italian (Italian ryegrass, Lolium multiflorum); test: as above
Description: as §1, §2

soybean (Glycine max) = test: as above
Description: as §1, §2

[11] = system: velvetleaf (Abutilon theophrasti); test: as above
Description: as §1, §2

[12] = system: waterhemp (common waterhemp, Amaranthus rudis); test: as above
Description: as §1, §2

kochia (Kochia scoparia) = test: Test C greenhouse herbicide test, postemergence
In short: (§3)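 Test chemicals were applied postemergence to greenhouse plants at the 1- to 4-leaf stage (2–18 cm tall) growing in peat/vermiculite medium. After 13–15 d, injury was rated visually against untreated controls on a 0–100 scale (0 = no effect, 100 = complete control).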

[13] = system: oat, wild (wild oat, Avena fatua); test: Test C greenhouse herbicide test, postemergence
In short: as §3

[14] = Postemergence, 31 g ai/ha, 0 to 100 scale (0 no effect, 100 complete control)
[15] = Postemergence, 125 g ai/ha, scale 0 to 100, 0 is no effect, 100 is complete control
[16] = Postemergence, 250 g ai/ha, scale 0 to 100, 0 no effect, 100 complete control, 13 to 15 d
[17] = Preemergence, 31 g ai/ha, scale 0 to 100, 0 is no effect, 100 is complete control
[18] = Preemergence, 62 g ai/ha, scale 0 to 100, 0 is no effect, 100 is complete control
[19] = Preemergence, 125 g ai/ha, scale 0 to 100, 0 is no effect, 100 is complete control
[20] = Preemergence, 250 g ai/ha, scale 0 to 100 (0 no effect, 100 complete control)
[21] = postemergence, 62 g ai/ha, scale 0 to 100, 0 no effect, 100 complete control

Structure (SMILES): COc1nn(C)c(=O)c(-c2c(C)ccc3ccccc23)c1OC(=O)OC(C)C [Compound 36]
- Blackgrass plant response rating [1, 14]: 5
- Plant response rating, Blackgrass [1, 15]: 5
- Plant response rating, Blackgrass [1, 16]: 20
- Plant response rating, Blackgrass [1, 17]: 0
- Plant response rating, Blackgrass [1, 18]: 30
- Plant response rating, Blackgrass [1, 19]: 20
- Blackgrass plant response rating [1, 20]: 30
- Blackgrass plant response rating [1, 21]: 5
- Corn plant response rating (corn (Zea mays); [14]): 0
- Plant response rating, Corn (corn (Zea mays); [15]): 5
- Plant response rating, Corn (corn (Zea mays); [16]): 5
- Plant response rating, Corn (corn (Zea mays); [17]): 0
- Plant response rating, Corn (corn (Zea mays); [18]): 0
- Plant response rating, Corn (corn (Zea mays); [19]): 0
- Corn plant response rating (corn (Zea mays); [20]): 0
- Corn plant response rating (corn (Zea mays); [21]): 0
- Crabgrass, Large plant response rating [2, 14]: 25
- Plant response rating, Crabgrass, Large [2, 15]: 25
- Plant response rating, Crabgrass, Large [2, 16]: 35
- Plant response rating, Crabgrass, Large [2, 17]: 70
- Plant response rating, Crabgrass, Large [2, 18]: 20
- Plant response rating, Crabgrass, Large [2, 19]: 20
- Crabgrass, Large plant response rating [2, 20]: 65
- Crabgrass, Large plant response rating [2, 21]: 30
- Foxtail, Giant plant response rating [3, 14]: 30
- Plant response rating, Foxtail, Giant [3, 15]: 70
- Plant response rating, Foxtail, Giant [3, 16]: 80
- Plant response rating, Foxtail, Giant [3, 17]: 75
- Plant response rating, Foxtail, Giant [3, 18]: 75
- Plant response rating, Foxtail, Giant [3, 19]: 85
- Foxtail, Giant plant response rating [3, 20]: 85
- Foxtail, Giant plant response rating [3, 21]: 55
- Johnsongrass plant response rating [4, 14]: 0
- Plant response rating, Johnsongrass [4, 15]: 5
- Plant response rating, Johnsongrass [4, 16]: 5
- Plant response rating, Johnsongrass [4, 17]: 0
- Plant response rating, Johnsongrass [4, 18]: 5
- Plant response rating, Johnsongrass [4, 19]: 5
- Johnsongrass plant response rating [4, 20]: 5
- Johnsongrass plant response rating [4, 21]: 5
- Lambsquarters plant response rating [5, 14]: 90
- Plant response rating, Lambsquarters [5, 15]: 98
- Plant response rating, Lambsquarters [5, 16]: 100
- Plant response rating, Lambsquarters [5, 17]: 70
- Plant response rating, Lambsquarters [5, 18]: 80
- Plant response rating, Lambsquarters [5, 19]: 85
- Lambsquarters plant response rating [5, 20]: 80
- Lambsquarters plant response rating [5, 21]: 98
- Morningglory plant response rating [6, 14]: 90
- Plant response rating, Morningglory [6, 15]: 98
- Plant response rating, Morningglory [6, 16]: 100
- Plant response rating, Morningglory [6, 17]: 80
- Plant response rating, Morningglory [6, 18]: 80
- Plant response rating, Morningglory [6, 19]: 90
- Morningglory plant response rating [6, 20]: 95
- Morningglory plant response rating [6, 21]: 98
- Oilseed Rape plant response rating [7, 14]: 40
- Plant response rating, Oilseed Rape [7, 15]: 50
- Plant response rating, Oilseed Rape [7, 16]: 90
- Plant response rating, Oilseed Rape [7, 17]: 50
- Plant response rating, Oilseed Rape [7, 18]: 60
- Plant response rating, Oilseed Rape [7, 19]: 60
- Oilseed Rape plant response rating [7, 20]: 95
- Oilseed Rape plant response rating [7, 21]: 40
- Pigweed plant response rating [8, 14]: 70
- Plant response rating, Pigweed [8, 15]: 95
- Plant response rating, Pigweed [8, 16]: 100
- Plant response rating, Pigweed [8, 17]: 90
- Plant response rating, Pigweed [8, 18]: 100
- Plant response rating, Pigweed [8, 19]: 100
- Pigweed plant response rating [8, 20]: 100
- Pigweed plant response rating [8, 21]: 85
- Ragweed plant response rating [9, 14]: 90
- Plant response rating, Ragweed [9, 15]: 95
- Plant response rating, Ragweed [9, 16]: 95
- Plant response rating, Ragweed [9, 17]: 85
- Plant response rating, Ragweed [9, 18]: 90
- Plant response rating, Ragweed [9, 19]: 95
- Ragweed plant response rating [9, 20]: 95
- Ragweed plant response rating [9, 21]: 90
- Ryegrass, Italian plant response rating [10, 14]: 55
- Plant response rating, Ryegrass, Italian [10, 15]: 60
- Plant response rating, Ryegrass, Italian [10, 16]: 80
- Plant response rating, Ryegrass, Italian [10, 17]: 30
- Plant response rating, Ryegrass, Italian [10, 18]: 30
- Plant response rating, Ryegrass, Italian [10, 19]: 35
- Ryegrass, Italian plant response rating [10, 20]: 85
- Ryegrass, Italian plant response rating [10, 21]: 60
- Soybean plant response rating (soybean (Glycine max); [14]): 0
- Plant response rating, Soybean (soybean (Glycine max); [15]): 5
- Plant response rating, Soybean (soybean (Glycine max); [16]): 15
- Plant response rating, Soybean (soybean (Glycine max); [17]): 100
- Plant response rating, Soybean (soybean (Glycine max); [18]): 0
- Plant response rating, Soybean (soybean (Glycine max); [19]): 30
- Soybean plant response rating (soybean (Glycine max); [20]): 20
- Soybean plant response rating (soybean (Glycine max); [21]): 0
- Velvetleaf plant response rating [11, 14]: 65
- Plant response rating, Velvetleaf [11, 15]: 95
- Plant response rating, Velvetleaf [11, 16]: 95
- Plant response rating, Velvetleaf [11, 17]: 55
- Plant response rating, Velvetleaf [11, 18]: 80
- Plant response rating, Velvetleaf [11, 19]: 85
- Velvetleaf plant response rating [11, 20]: 90
- Velvetleaf plant response rating [11, 21]: 85
- Waterhemp plant response rating [12, 14]: 85
- Plant response rating, Waterhemp [12, 15]: 95
- Plant response rating, Waterhemp [12, 16]: 98
- Plant response rating, Waterhemp [12, 17]: 100
- Plant response rating, Waterhemp [12, 18]: 100
- Plant response rating, Waterhemp [12, 19]: 100
- Waterhemp plant response rating [12, 20]: 100
- Waterhemp plant response rating [12, 21]: 95
- Kochia plant response rating (kochia (Kochia scoparia); [14]): 50
- Plant response rating, Kochia (kochia (Kochia scoparia); [15]): 55
- Plant response rating, Kochia (kochia (Kochia scoparia); [16]): 90
- Kochia plant response rating (kochia (Kochia scoparia); [21]): 55
- Oat, Wild plant response rating [13, 14]: 50
- Plant response rating, Oat, Wild [13, 15]: 65
- Plant response rating, Oat, Wild [13, 16]: 85
- Oat, Wild plant response rating [13, 21]: 60
